In general, pIC50 refers to the IC50 on a negative log10 scale, so that one unit is a factor of ten. A high value points to a small IC50.

This assay has as its target T1, tyrosyl-DNA phosphodiesterase 2 (hTDP2-CAT) (Homo sapiens, UniProt O95551, C273S).
T1 construct: gene TDP2; catalytic domain, residues 113–362
T1 sequence (O95551 113-362 C273S): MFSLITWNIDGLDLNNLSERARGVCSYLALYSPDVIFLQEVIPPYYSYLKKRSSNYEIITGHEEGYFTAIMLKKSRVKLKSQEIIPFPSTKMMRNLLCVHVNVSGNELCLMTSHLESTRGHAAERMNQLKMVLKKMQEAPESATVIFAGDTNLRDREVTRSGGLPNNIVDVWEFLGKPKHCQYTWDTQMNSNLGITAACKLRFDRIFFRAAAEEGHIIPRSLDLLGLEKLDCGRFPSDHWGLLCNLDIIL
Briefly: fluorescence-based […]'-phosphotyrosyl oligonucleotide enzyme assay. Type of assay: biochemical.

pIC50: −log10 of the molar value.

For `N#Cc1ccc2cc3c(=O)[nH]c(=O)nc-3n(-c3cccc(CO)c3)c2c1` [compound 149, 149], the pIC50 was 6.31.

(Values after article PMC4925160, “Mode of action of DNA-competitive small molecule inhibitors of tyrosyl DNA phosphodiesterase 2” (Biochemical Journal, 2016).)
